# Numbered stars: 1 amine (or outer) side, 2 acyl side, 3 side chain; on linkers, the order of the positions; unused ones are H or OH. Bridge positions count the residues as written; N and C are the ends. Square brackets hold non-standard residues; d marks the D form. Peptide text beside a SMILES is read from it. dAbu(3S-yl) = C[C@@H]([C@@H](N[*:1])C(=O)[*:2])[*:3]; pGlu = O=C1CC[C@@H](C(=O)O)N1
# Columns and labels:
# [1] = In vitro stability in brain plasma; format: in vitro ADME, rat; settings: Sprague-Dawley, rat, other tissue homogenate, pH 7.4
# Experimental: The method to study the stability of peptides in brain plasma is described in the Supplementary material. […]
# receptor-2-selective agonist reduces acute food intake
# Anneke Kuipers1, Márta Balasko2, Erika Pétervári2, Andreas Koller3,4, Susanne M.
# Brunner3,4, Gert N. Moll1,5, Barbara Kofler 3*
# In vitro stability in brain plasma
# Sprague dawley rat brain lyophilized powder was purchased from MyBioSource (San Diego, USA). One gram brain powder was reconstituted in 10 ml PBS, 0.5 ml 2 M Tris (pH=8), 100 µl Triton X -100 and 10 mg SDS. The solution was centrifuged and the supernatant was collected, aliquoted and stored at -20 °C until usage. To assess the stability, 10 µM GAL-(1-15) and 10 µM M89b were incubated in 1% brain plasma buffered with 200 mM phosphate buffer (pH 7.4) at 37°C for up to 6 hours. At various time points […]
# 20 µl 100% ACN. Samples were centrifuged and kept on ice. Full-length peptides were quantified by using a C12 column (C12 RP 250 x 4.60 mm column, Phenomenex) on a JASCO HPLC system and applying a gradient of 20 -90% ACN in 0.1% TFA for 30 minutes.
# Peptides were detected at 280 nm. A280 areas in chromatograms of the corresponding GAL-(1-15) and M89b full-length peptide peaks were used to determine the amount of peptide left after incubation with cerebrospinal fluid at the different time points. Peptide peaks were determined using JASCO-Borwin Chromatography software (v1.50).
# [2] = mouse, in vivo, 1 mg/kg
# Experimental: Pharmacokinetics studies were performed at Pharmidex UK. The animal experimental protocols were approved by the UK Government Home Office and carried out in accordance with the guidelines of the Animals (Scientific Procedures) Act (1986). Ethical approval was subject to UK Home Office license number P651A96A4.
# One mg HPLC-purified and HPLC-quantified M89b was dissolved in 1 ml Milli-Q followed by thorough vortexing and warming the solution for 10 min to 60 °C. From this solution, a dilution in 0.1% 2-hydroxypropyl-β-cyclodextrin was made. Male CD1 mice (weighing 26.5 to 32.9 g, n = 3 per time point) were used for the pharmacokinetic studies. Mice were given 1 mg/kg M89b either subcutaneously (s.c.) or intravenously (i.v.). Samples were collected after 2, 5, 10, 15, 30, 60, 120, and 240 min. Post-dosing, the 4 h mice were individually housed in metabolic cages for cold collection of urine in pre-weighed tubes which were re-weighed prior to storage. At each scheduled sampling time point, terminal blood was collected from each animal by cardiac puncture in heparin-containing tubes (20 IU heparin/mL of blood) kept on wet ice. The blood was centrifuged (5 min at 21, 100 g at 4 °C), and the resulting plasma was transferred to the corresponding labeled polypropylene tubes prior to storage. […]
# [3] = Hydrophobicity and solubility of the peptide for intranasal formulation; format: physicochemical; settings: in 10% (2-hydroxypropyl)-ß-cyclodextrin (HBC)
# Experimental: For intranasal delivery, 1 mg of M89b was first dissolved in 566 µl 2,2,2-trifluorethanol, 566 µl 10% (2-hydroxypropyl)-ß-cyclodextrin (HBC), and 1 µl acetic acid and incubated at 60 °C for 20 min. Another 566 µl of 10% HBC were added. The peptide was then dried in a speed-vac, and the dried pellet was dissolved in 1132 µl water by vortexing and incubation at 60 °C. M871 and GALP were purchased from GL Biochem. M871 was dissolved in saline containing 10% HBC. GALP was dissolved in saline containing 5% α-cyclodextrin.
# [4] = biological target: T1, GAL3R (Homo sapiens, UniProt O60755); assay: SRE luciferase reporter assay, GAL3R-transfected HEK293 Gqi cells; settings: transiently transfected HEK293 Gqi cells; up to 10 µM, 5 h
# T1 sequence (O60755 1-368): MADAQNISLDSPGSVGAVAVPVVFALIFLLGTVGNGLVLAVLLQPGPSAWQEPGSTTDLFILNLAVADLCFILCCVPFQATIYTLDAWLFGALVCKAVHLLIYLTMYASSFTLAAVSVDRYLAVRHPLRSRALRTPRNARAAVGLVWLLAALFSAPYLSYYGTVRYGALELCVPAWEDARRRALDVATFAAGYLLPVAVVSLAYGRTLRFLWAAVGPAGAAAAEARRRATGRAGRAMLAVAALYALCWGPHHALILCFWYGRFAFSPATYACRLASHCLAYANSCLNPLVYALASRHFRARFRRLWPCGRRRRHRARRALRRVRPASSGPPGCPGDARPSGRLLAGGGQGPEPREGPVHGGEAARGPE
structure (smiles),measurement,setting,value
"CC(C)C[C@H](NC(=O)[C@H](CC(C)C)NC(=O)[C@H](Cc1ccc(O)cc1)NC(=O)CNC(=O)[C@H](C)NC(=O)[C@H](C)NC(=O)[C@H](CC(N)=O)NC(=O)[C@H](CC(C)C)NC(=O)[C@H](CC(N)=O)NC(=O)[C@H](Cc1c[nH]c2ccccc12)NC(=O)[C@@H]1CCC(=O)N1)C(=O)N[C@@H](C)C(=O)N[C@H]1C(=O)N[C@@H](Cc2c[nH]cn2)C(=O)N[C@@H](C)C(=O)N[C@H](C(=O)NCC(=O)O)CS[C@H]1C [Variant M89b, G1pE-T3N-S6A-G12A-methyllanthionine[13–16]-galanin-(1–17)] ([pGlu]WNLNAAGYLLA[dAbu(3S-yl)]HACG-OH; thioether 13-16; C-terminus assumed)","remaining at 6 h, 10 µM",[1],~85%
same,Detection in urine samples,[2],not detected
same,Detection in brain tissue,[2]; sc,not detected
same,Solubility,[3],improved solubility
same,"Stimulation of GAL3R, luciferase reporter",[4],inability to stimulate

# Source: article PMC8804135 (Neurotherapeutics, 2021)
